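Following 48 hours of exposure in 96-well plates, responses at five concentrations were used to interpolate endpoints linearly. GI50 is the concentration that inhibits growth by half.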 Calls of active or inactive are those of the source. Cut-off read from the data, not from the text of the source: active = GI50 up to about 1.1 µM and inactive = higher.
Columns and labels:
Assay in all cases: inhibition of tumour cell growth, NCI panel, 48 h
ACHN = test system: ACHN
DU-145 = test system: DU-145
HCT-116 = test system: HCT-116
HOP-92 = test system: HOP-92
HT-29 = test system: HT-29
MCF7 = test system: MCF7
MDA-MB-435 = test system: MDA-MB-435
MOLT-4 = test system: MOLT-4
NCI-H226 = test system: NCI-H226
OVCAR-4 = test system: OVCAR-4
SF-295 = test system: SF-295
U-251 = test system: U-251
A498 = test system: A498
COLO 205 = test system: COLO 205
HCC 2998 = test system: HCC 2998
HOP-62 = test system: HOP-62
Malme-3M = test system: Malme-3M
RPMI-8226 = test system: RPMI-8226
SK-MEL-5 = test system: SK-MEL-5
NCI/ADR-RES = test system: NCI/ADR-RES

Measured: GI50

Cc1cc2cc3ccccc3cc2c(=O)[nH]1
inactive: ACHN > 10 µM | DU-145 > 10 µM | HCT-116 > 10 µM | HOP-92 > 10 µM | HT-29 > 10 µM | MCF7 > 10 µM | MDA-MB-435 > 10 µM | MOLT-4 > 10 µM | NCI-H226 > 10 µM | OVCAR-4 > 10 µM | SF-295 > 10 µM | U-251 > 10 µM

Nc1nc(N)c2c(-c3ccccc3)ccnc2n1
inactive: A498 > 100 µM | ACHN > 100 µM | COLO 205 > 100 µM | DU-145 > 100 µM | HCC 2998 > 100 µM | HCT-116 > 100 µM | HOP-62 > 100 µM | HOP-92 81.7 µM | HT-29 > 100 µM | MCF7 > 100 µM | MDA-MB-435 > 100 µM | MOLT-4 > 10 µM | Malme-3M > 100 µM | NCI-H226 40.4 µM | OVCAR-4 > 100 µM | RPMI-8226 > 100 µM | SF-295 > 100 µM | SK-MEL-5 > 100 µM | U-251 > 100 µM

Cc1cc(O)c(C(C)C)cc1NC(=O)Nc1cccc2ccccc12
inactive: A498 13.1 µM | ACHN 14.6 µM | DU-145 15 µM | HCC 2998 18.8 µM | HCT-116 15.6 µM | HOP-62 16.4 µM | HOP-92 17.4 µM | HT-29 17.5 µM | MDA-MB-435 15.9 µM | MOLT-4 33.8 µM | Malme-3M 19.5 µM | NCI-H226 19.5 µM | NCI/ADR-RES 20.9 µM | OVCAR-4 6.43 µM | SF-295 13.8 µM | SK-MEL-5 12.5 µM | U-251 17.2 µM

CC1=CC2=C(C#N)C(=O)OC2(C)C(c2ccccc2)C1 (stereo not drawn)
inactive: A498 > 100 µM | ACHN > 100 µM | DU-145 > 100 µM | HCT-116 > 100 µM | HOP-62 > 100 µM | HOP-92 87.5 µM | HT-29 > 100 µM | MDA-MB-435 > 100 µM | MOLT-4 > 100 µM | Malme-3M > 100 µM | NCI-H226 > 100 µM | NCI/ADR-RES 72.1 µM | OVCAR-4 87.7 µM | RPMI-8226 77.8 µM | SF-295 > 100 µM | U-251 > 100 µM

CC(=O)O[C@@H]1CC[C@@]2(C)C(=O)C34C[C@@]5(C)C([C@@H](C)CCCC(C)C)CCC5(C)[C@](O)(O3)C(=O)[C@H]4C2C1(C)C (stereo partly drawn)
inactive: A498 22.2 µM | ACHN 14 µM | COLO 205 14.5 µM | HCC 2998 11.3 µM | HCT-116 14 µM | HOP-62 17.7 µM | HOP-92 19.1 µM | HT-29 13 µM | MOLT-4 7.74 µM | Malme-3M 18.5 µM | NCI-H226 15.7 µM | OVCAR-4 13.2 µM | RPMI-8226 13.4 µM | SF-295 16.3 µM | SK-MEL-5 15 µM | U-251 14.3 µM

COc1c(OC2OC(CO)C(O)C(O)C2O)cc2c(c1OC)-c1ccc(OC)c(=O)cc1C(NC(C)=O)CC2 (stereo not drawn)
inactive: A498 > 100 µM | ACHN > 100 µM | COLO 205 > 28.3 µM | HCC 2998 > 100 µM | HCT-116 > 100 µM | HOP-62 > 100 µM | HOP-92 44.6 µM | HT-29 > 100 µM | MOLT-4 > 100 µM | Malme-3M 81.7 µM | NCI-H226 > 100 µM | OVCAR-4 > 100 µM | RPMI-8226 > 100 µM | SF-295 > 87.3 µM | SK-MEL-5 35.4 µM | U-251 > 100 µM

CCC(=N\NC(N)=S)/C(C)=N/O
inactive: ACHN > 100 µM | COLO 205 > 100 µM | DU-145 > 100 µM | HCC 2998 > 100 µM | HCT-116 > 100 µM | HOP-62 > 100 µM | HOP-92 > 100 µM | HT-29 > 100 µM | MCF7 > 100 µM | MDA-MB-435 > 100 µM | Malme-3M > 100 µM | NCI-H226 > 100 µM | NCI/ADR-RES > 100 µM | OVCAR-4 > 100 µM | RPMI-8226 > 100 µM | SF-295 > 100 µM | SK-MEL-5 > 100 µM | U-251 > 100 µM

O=C1/C(=C\c2ccc([N+](=O)[O-])cc2)N(S(=O)(=O)c2ccccc2)c2ncccc21
inactive: ACHN 15.9 µM | COLO 205 19.5 µM | DU-145 27.5 µM | HCT-116 18.2 µM | HOP-62 18.7 µM | HT-29 16.6 µM | MCF7 24.7 µM | MDA-MB-435 21.4 µM | MOLT-4 3.24 µM | Malme-3M 18.2 µM | NCI-H226 22.9 µM | NCI/ADR-RES 23.9 µM | RPMI-8226 5.43 µM | SF-295 28.2 µM | SK-MEL-5 16.8 µM | U-251 18.2 µM

OC1CN(OC/C=C/c2ccccc2)CC(O)C1O (stereo not drawn)
inactive: A498 > 100 µM | ACHN > 100 µM | COLO 205 > 100 µM | HCC 2998 > 100 µM | HCT-116 > 100 µM | HOP-62 > 100 µM | HOP-92 > 100 µM | HT-29 > 100 µM | MOLT-4 > 100 µM | Malme-3M > 100 µM | NCI-H226 > 100 µM | OVCAR-4 > 100 µM | RPMI-8226 44.3 µM | SF-295 > 100 µM | SK-MEL-5 > 100 µM | U-251 > 100 µM

NCC1CCCCC1.O=C(O)NCC1CCCCC1
inactive: A498 15 µM | ACHN 23.9 µM | DU-145 21.1 µM | HCT-116 27.6 µM | HOP-62 17.5 µM | HOP-92 3.95 µM | HT-29 19.3 µM | MDA-MB-435 22.9 µM | MOLT-4 15.2 µM | Malme-3M 2.29 µM | NCI-H226 17.9 µM | NCI/ADR-RES 26 µM | OVCAR-4 35.6 µM | RPMI-8226 1.36 µM | SF-295 19.1 µM | SK-MEL-5 15.3 µM | U-251 7.45 µM

COC(=O)c1ccc(/C=C2\Oc3ccccc3C2=O)cc1
inactive: ACHN > 100 µM | COLO 205 > 100 µM | DU-145 > 100 µM | HCC 2998 > 100 µM | HCT-116 > 100 µM | HOP-62 > 100 µM | HT-29 > 100 µM | MCF7 > 100 µM | MDA-MB-435 > 100 µM | MOLT-4 > 100 µM | NCI-H226 > 100 µM | NCI/ADR-RES > 100 µM | OVCAR-4 > 100 µM | RPMI-8226 > 100 µM | SF-295 > 100 µM | SK-MEL-5 > 100 µM | U-251 > 100 µM

CC(C)NC(=O)OCc1c(COC(=O)NC(C)C)n(C)c2c1ccc1cc(Cl)c(Cl)cc12
inactive: A498 1.75 µM | ACHN 11.7 µM | COLO 205 10.9 µM | HCT-116 11.7 µM | HOP-62 14.7 µM | HOP-92 11.4 µM | HT-29 15.9 µM | MCF7 3.28 µM | MDA-MB-435 6.43 µM | MOLT-4 3.97 µM | Malme-3M 10.8 µM | NCI-H226 3.78 µM | NCI/ADR-RES 15.9 µM | OVCAR-4 20.1 µM | RPMI-8226 10.3 µM | SF-295 16.6 µM | SK-MEL-5 16.5 µM | U-251 15.9 µM
